According to patent publication US8937065B2, “Compositions and methods for modulating a kinase” (Clevexel Pharma, priority 2011, dated 2015):
Read-outs that look alike come from different tables or passages of the source.

What was measured:
JAK3 pathway = test: Cell based JAK3 pathway inhibition (STAT6-bla RA1 cells, IL-4 activated); conditions: for IC50: STAT6-bla RA1 cells, IL-4 at EC80; for Emax: cell based JAK3 pathway inhibition, maximal inhibition, read-out: Max % Inh
Description: 32 μL of the cell suspension (25,000 cells) was added to each well of a 384-well TC-Treated assay plate. Cells in Assay Media were incubated for 16-24 hours in the plate at 37° C./5% CO2 in a humidified incubator. 4 μL of a 10× serial dilution of a compound of the invention was added to appropriate wells of the plate and pre-incubated at 37° C./5% CO2 in a humidified incubator with cells for 30 minutes. 4 μL of 10× control activator IL-4 at the predetermined EC80 concentration was added to wells containing the compound of the invention. The plate was incubated for 5 hours at 37° C./5% CO2 in a humidified incubator. 8 μL of 1 μM Substrate Loading Solution was added to each well and the plate was incubated for 2 hours at room temperature. The plate was read on a fluorescence plate reader.

Daudi cells = test: Daudi CTG assay (Daudi proliferation, 72 hr, Cell Titer Glo); format: cell-based; conditions: Homo sapiens
Description: The compounds of the invention were tested on Daudi proliferation according to the procedure in Example 4 (for Daudi cells): Proliferation of RS4; 11, Ramos, Namalwa, RL, Molt-4 and Daudi cells. The compounds of the invention were tested on Daudi proliferation (72 hr), 3 fold dilution, and 9 points in duplicates. The top concentration for compounds of the invention was 10 uM; reference compound 7A top concentration was 10 uM; and Paclitaxel was 500 nM. Cell viability was determined using the Cell Titer Glo (CTG) reagent and detected by EnVision. EC50s were calculated by Prism 5.
The CellTiter-Glo™ Luminescent Cell Viability Assay uses ATP, a required co-factor of the luciferase reaction, as an indicator of metabolically active cells. The enzyme luciferase acts on luciferin in the presence of Mg^2+and ATP to produce oxyluciferin and to release energy in the form of luminescence. Since the luciferase reaction requires ATP, the luminescence produced is proportional to the amount of ATP present, an indicator of cellular metabolic activity.

JAK3 = molecular target: T1, JAK3 (Homo sapiens, UniProt P52333); test: JAK3 enzymatic activity assay (Z'-LYTE Biochemical Kinase Assay, 2 hr preincubation at 4° C.); conditions: cell free, 1% DMSO, read-out: JAK3 activity cell free (2 hr preincubation at (4° C.) Kj)
T1 construct: purchased Invitrogen, Madison, Wis
T1 sequence (P52333 1-1124): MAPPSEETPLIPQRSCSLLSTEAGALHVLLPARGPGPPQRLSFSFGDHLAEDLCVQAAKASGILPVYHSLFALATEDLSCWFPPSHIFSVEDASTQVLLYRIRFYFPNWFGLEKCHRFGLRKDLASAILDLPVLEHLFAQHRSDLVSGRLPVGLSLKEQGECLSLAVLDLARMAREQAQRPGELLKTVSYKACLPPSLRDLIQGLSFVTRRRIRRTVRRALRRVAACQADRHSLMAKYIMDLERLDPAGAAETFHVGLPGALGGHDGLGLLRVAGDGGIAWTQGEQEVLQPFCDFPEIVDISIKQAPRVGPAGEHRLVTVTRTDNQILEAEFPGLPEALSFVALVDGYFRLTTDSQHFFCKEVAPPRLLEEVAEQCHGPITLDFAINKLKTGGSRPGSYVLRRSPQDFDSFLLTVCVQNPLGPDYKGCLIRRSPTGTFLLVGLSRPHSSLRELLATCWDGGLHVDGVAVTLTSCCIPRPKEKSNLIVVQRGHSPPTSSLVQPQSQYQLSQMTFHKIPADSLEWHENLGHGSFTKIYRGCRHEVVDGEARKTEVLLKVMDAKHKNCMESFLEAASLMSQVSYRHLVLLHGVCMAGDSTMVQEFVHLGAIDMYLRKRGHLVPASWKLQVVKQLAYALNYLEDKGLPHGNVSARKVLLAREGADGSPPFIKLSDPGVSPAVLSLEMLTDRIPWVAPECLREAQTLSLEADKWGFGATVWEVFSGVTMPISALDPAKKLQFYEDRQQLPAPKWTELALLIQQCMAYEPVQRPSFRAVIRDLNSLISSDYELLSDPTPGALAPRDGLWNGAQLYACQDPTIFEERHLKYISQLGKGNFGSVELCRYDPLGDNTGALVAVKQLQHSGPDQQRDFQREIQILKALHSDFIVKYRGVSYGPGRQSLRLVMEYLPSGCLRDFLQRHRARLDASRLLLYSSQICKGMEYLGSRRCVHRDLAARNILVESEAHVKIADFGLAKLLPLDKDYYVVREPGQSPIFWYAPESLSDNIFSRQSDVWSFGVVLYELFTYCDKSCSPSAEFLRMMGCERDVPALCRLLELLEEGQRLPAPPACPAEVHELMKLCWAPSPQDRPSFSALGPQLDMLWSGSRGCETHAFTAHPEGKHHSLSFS
Description: The assays were performed according to manufacturer's protocols, except that prior to the kinase reaction they were pre-incubated for 2 hours at 4° C., in order to be able to assay for time-dependent inhibition.
In addition to the compound, each 10 μL JAK3 kinase reaction contained 0.43-1.89 ng JAK3 and 2 μM peptide substrate in 50 mM HEPES (pH 7.5), 0.01% BRIJ-35, 10 mM MgCl2 and 1 mM EGTA. The kinase reaction was allowed to proceed for 1 hour.

physchem = conditions: pH 7.4, aqueous buffer, thermodynamic from solid
Description: The test concentration was 100 μM (0% of DMSO for test compounds, 1% of DMSO for reference compounds). The test system was a 100 mM phosphate buffer (pH 7.4). Sample size was duplicates (n=2) and the bioanalytical method was LC-UV (Agilent-1200). Mobile phase A: H2O-1% TFA, B: MeOH-1% TFA; column Boston Symmetrix ODS-H (2.1×50 mm, 5 μm); LC conditions 0.4 mL/Min.
Assay Procedure • 1. For reference compounds: • Add 8 μL of 10 mM DMSO stock solution into 792 μL of 100 mM phosphate buffer (n=2). Final conc.=100 μM (1% of DMSO)
For test compounds: • Add 8 μL of 10 mM DMSO stock solution into the tubes (n=2). • Dry the samples under nitrogen. • Add 800 μL of 100 mM phosphate buffer into the tubes. Final conc.=100 μM (0% of DMSO) • 2. Sample tubes are shaken for 1 hour (1000 rpm) at room temperature and 37° C. • 3. Samples are centrifuged (10 min-12000 rpm) to precipitate un-dissolved particles. • 4. Supernatants are transferred to new tubes • 5. Concentrations of the supernatants after centrifugation are determined by LC-UV detection.

[1] = Daudi CTG assay, Daudi proliferation 72 hr, Cell Titer Glo, top concentration 10 uM (Paclitaxel 500 nM), read-out: IC50

Structure (SMILES) | IC50 (JAK3 pathway) [µM] | Emax (JAK3 pathway) [%] | Ki (JAK3) [µM] | further results
CCN(CC)CC(=O)Nc1cc(-c2nc(-c3c[nH]c(C(=O)N4CCCC4)c3)cs2)ccc1OC [34A] | 0.11 to 1 | 79.7 |  | IC50 (Daudi cells; [1]): 0.11 to 1 µM
O=C(c1cc(-c2csc(NCc3ccco3)n2)c[nH]1)N1CCCC1 [6A] | 1.1 to 10 |  | 1.1 to 10 | 
O=C(c1cc(-c2csc(-c3ccccn3)n2)c[nH]1)N1CCCC1 [53A] | 0.11 to 1 | 72 |  | 
Cl.O=C(CN1CCOCC1)Nc1cccc(-c2nc(-c3c[nH]c(C(=O)N4CCCC4)c3)cs2)c1 [9X (sample 2), 2-morpholino-N-(3-(4-(5-(pyrrolidine-1-carbonyl)-1H-pyrrol-3-yl)thiazol-2-yl)phenyl)acetamide hydrochloride salt] |  |  |  | solubility at 1 h (physchem; Solubility (μM) Mean): 51.9 µM; solubility at 1 h (physchem; Solubility in PBS): 10 to 80 µM
CN(C)C(=O)c1cc(-c2csc(-c3cccc(NC(=O)CN4CCOCC4)c3)n2)c[nH]1 [23A] | 1.1 to 10 | 75.1 |  | 
CN(C)CC(=O)Nc1cccc(-c2nc(-c3c[nH]c(C(=O)N4CCCC4)c3)cs2)c1 [26A] | 0.11 to 1 | 74.6 |  | 
CCOc1ccc(-c2nc(-c3c[nH]c(C(=O)N4CCCC4)c3)cs2)cc1OC [9A] |  |  | 1.1 to 10 | 
Cc1csc(Cc2nc(-c3c[nH]c(C(=O)N4CCCC4)c3)cs2)n1 [8A] |  |  | 1.1 to 10 | 
O=C(CN1CCOCC1)Nc1ccc(-c2nc(-c3c[nH]c(C(=O)N4CCCCC4)c3)cs2)cc1 [31A] | 1.1 to 10 | 76.8 |  | IC50 (Daudi cells; [1]): 1.1 to 10 µM
O=C(CN1CCCCC1)Nc1cccc(-c2nc(-c3c[nH]c(C(=O)N4CCCC4)c3)cs2)c1 [20A] | 0.11 to 1 | 80.2 |  | 
O=C(c1cc(-c2csc(NCc3ccc(F)cc3)n2)c[nH]1)N1CCCC1 [47A] |  |  | 1.1 to 10 | 
CC(=O)c1ccc(Nc2nc(-c3c[nH]c(C(=O)N4CCCC4)c3)cs2)cc1 [14A] |  |  | 1.1 to 10 | 
CC(=O)Nc1cccc(-c2nc(-c3c[nH]c(C(=O)N4CCCC4)c3)cs2)c1 [21A] | 0.11 to 1 | 84.4 |  | 
CN1CCN(CC(=O)Nc2cccc(-c3nc(-c4c[nH]c(C(=O)N(C)C)c4)cs3)c2)CC1 [25A] | > 10 |  |  | 
COc1ccc(-c2nc(-c3c[nH]c(C(=O)N4CCCC4)c3)cs2)cc1NC(=O)CN1CCOCC1 [32A] | 0.11 to 1 | 71.7 |  | IC50 (Daudi cells; [1]): 0.11 to 1 µM
CC(=O)O[C@H]1C(=O)[C@@]2(C)[C@H]([C@H](OC(=O)c3ccccc3)[C@]3(O)C[C@H](OC(=O)[C@H](O)[C@@H](NC(=O)c4ccccc4)c4ccccc4)C(C)=C1C3(C)C)[C@]1(OC(C)=O)CO[C@@H]1C[C@@H]2O [Paclitaxel, paclitaxel, reference compound] |  |  |  | IC50 (Daudi cells; Daudi, read-out: Daudi CTG assay IC50, historical data): 0.00469 µM; IC50 (Daudi cells; Daudi proliferation 72 hr, control compounds, read-out: Daudi CTG assay control IC50): 0.00449 µM
O=C(c1cc(-c2csc(NC3CCCC3)n2)c[nH]1)N1CCCC1 [45A] |  |  | 1.1 to 10 | 
O=C(CN1CCOCC1)Nc1cccc(-c2nc(-c3c[nH]c(C(=O)NC4CC4)c3)cs2)c1 [27A] | 1.1 to 10 | 100 |  | 
O=C(CN1CCOCC1)Nc1ccc(-c2nc(-c3c[nH]c(C(=O)N4CCCC4)c3)cs2)cc1 [22A] | 0.11 to 1 | 100 |  | 

Structure (SMILES) | IC50 (JAK3 pathway) [µM] | Emax (JAK3 pathway) [%] | Ki (JAK3) [µM] | further results
CN1CCN(CC(=O)Nc2cccc(-c3nc(-c4c[nH]c(C(=O)N5CCCC5)c4)cs3)c2)CC1 [17A] | 0.11 to 1 |  | > 10 | 
O=C(c1cc(-c2csc(Nc3c(F)cc(F)cc3F)n2)c[nH]1)N1CCCC1 [18A] |  |  | 1.1 to 10 | 
O=C(c1cc(-c2csc(Nc3ccccc3)n2)c[nH]1)N1CCCC1 [12A] | 0.11 to 1 | 81 |  | 
COc1ccc(-c2nc(-c3c[nH]c(C(=O)N4CCCC4)c3)cs2)cc1NC(=O)CN1CCCCC1 [33A] | 0.11 to 1 | 69.8 |  | IC50 (Daudi cells; [1]): 0.11 to 1 µM
O=C(c1cc(-c2csc(Nc3ccc(F)cc3)n2)c[nH]1)N1CCCC1 [13A] | 0.11 to 1 | 78 |  | 
O=C(c1cc(-c2csc(NCc3ccco3)n2)c[nH]1)N1CCCC1 [5A] |  | 68 |  | 
NC(=O)c1cc(-c2csc(-c3cccc(NC(=O)CN4CCOCC4)c3)n2)c[nH]1 [29A] | > 10 |  |  | IC50 (Daudi cells; [1]): > 10 µM
COc1cccc(-c2nc(-c3c[nH]c(C(=O)N4CCCC4)c3)cs2)c1 [10A] |  |  | 1.1 to 10 | 
O=C(Nc1cccc(-c2nc(-c3c[nH]c(C(=O)N4CCCC4)c3)cs2)c1)N1CCOCC1 [28A] | 0.11 to 1 | 82.3 |  | 
Cc1ccccc1-c1nc(-c2c[nH]c(C(=O)N3CCCC3)c2)cs1 [64A] |  |  | 1.1 to 10 | 
CCN(CC)C(=O)c1cc(-c2csc(-c3cccc(NC(=O)CN4CCOCC4)c3)n2)c[nH]1 [30A] | 1.1 to 10 | 98.2 |  | IC50 (Daudi cells; [1]): 1.1 to 10 µM
O=C(Nc1cccc(-c2nc(-c3c[nH]c(C(=O)N4CCCC4)c3)cs2)c1)c1ccccc1 [16A] |  |  | > 10 | 
Cc1ccc(-c2nc(-c3c[nH]c(C(=O)N4CCCC4)c3)cs2)c(C)c1 [63A] | 0.11 to 1 | 63 |  | 
O=C(c1cc(-c2csc(-c3ccc(Cl)cc3)n2)c[nH]1)N1CCCC1 [61A] | 0.11 to 1 | 60 |  | 
O=C(c1cc(-c2csc(Nc3ccc(N4CCOCC4)cc3)n2)c[nH]1)N1CCCC1 [19A] |  |  | 1.1 to 10 | 
CN(C)C(=O)c1cc(-c2csc(-c3cccc(NC(=O)CN4CCCCC4)c3)n2)c[nH]1 [24A] | 1.1 to 10 | 74.7 |  | 
O=C(c1cc(-c2csc(Nc3cccc(C(F)(F)F)c3)n2)c[nH]1)N1CCCC1 [39A] |  |  | 1.1 to 10 | 
CN(c1ccccc1)c1nc(-c2c[nH]c(C(=O)N3CCCC3)c2)cs1 [15A] |  |  | > 10 | 
O=C(CN1CCOCC1)Nc1cc(-c2nc(-c3c[nH]c(C(=O)N4CCCC4)c3)cs2)ccc1F [35A] | 0.11 to 1 | 78.9 |  | IC50 (Daudi cells; [1]): 0.11 to 1 µM
